Experimental data from patent US20200216417A1, “INHIBITORS OF FIBROBLAST ACTIVATION PROTEIN” (Praxis Biotech LLC, priority 2019, published 2020).
Where two headings read alike, the source gives them in different places.

Assays:
Type in all cases: biochemical
[1] = biological target: T1, recombinant human FAPα (rhFAPα) (Homo sapiens, UniProt Q12884); experiment: FAPα enzymatic exopeptidase (dipeptidase) activity assay, Z-Gly-Pro-AMC; conditions: for inhibition at 1 µM: exopeptidase inhibition at 1 μM test compound
T1 construct: purchased R&S system (so in the source)
T1 sequence (Q12884 1-760): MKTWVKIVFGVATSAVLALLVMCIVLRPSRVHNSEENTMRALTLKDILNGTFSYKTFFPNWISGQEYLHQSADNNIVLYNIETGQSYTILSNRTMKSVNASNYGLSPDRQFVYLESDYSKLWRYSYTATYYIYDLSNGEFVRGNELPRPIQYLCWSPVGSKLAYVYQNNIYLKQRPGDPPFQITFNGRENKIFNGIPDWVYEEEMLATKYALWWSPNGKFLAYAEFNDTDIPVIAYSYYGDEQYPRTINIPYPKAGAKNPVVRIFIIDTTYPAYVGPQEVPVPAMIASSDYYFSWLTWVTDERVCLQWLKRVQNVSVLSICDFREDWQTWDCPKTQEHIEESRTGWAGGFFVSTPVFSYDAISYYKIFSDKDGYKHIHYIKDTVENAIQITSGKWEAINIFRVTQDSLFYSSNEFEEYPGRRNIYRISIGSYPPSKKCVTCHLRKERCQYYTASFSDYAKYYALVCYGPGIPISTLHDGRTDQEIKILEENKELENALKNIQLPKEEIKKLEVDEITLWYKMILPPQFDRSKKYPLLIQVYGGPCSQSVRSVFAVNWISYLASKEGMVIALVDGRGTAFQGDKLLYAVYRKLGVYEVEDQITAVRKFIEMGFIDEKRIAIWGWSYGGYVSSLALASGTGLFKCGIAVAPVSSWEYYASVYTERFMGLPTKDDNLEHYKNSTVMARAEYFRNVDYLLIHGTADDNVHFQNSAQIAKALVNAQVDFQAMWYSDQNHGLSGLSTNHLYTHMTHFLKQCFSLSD

[2] = biological target: T2, recombinant human DPP9 (rhDPP9) (Homo sapiens, UniProt Q86TI2); experiment: DPP9 inhibition assay, 10 ng rhDPP9, Tris-HCl/BSA buffer; conditions: Table 3B
T2 construct: purchased R&S system / R&D systems (both sic) 5419-SE
T2 sequence (Q86TI2 whole entry): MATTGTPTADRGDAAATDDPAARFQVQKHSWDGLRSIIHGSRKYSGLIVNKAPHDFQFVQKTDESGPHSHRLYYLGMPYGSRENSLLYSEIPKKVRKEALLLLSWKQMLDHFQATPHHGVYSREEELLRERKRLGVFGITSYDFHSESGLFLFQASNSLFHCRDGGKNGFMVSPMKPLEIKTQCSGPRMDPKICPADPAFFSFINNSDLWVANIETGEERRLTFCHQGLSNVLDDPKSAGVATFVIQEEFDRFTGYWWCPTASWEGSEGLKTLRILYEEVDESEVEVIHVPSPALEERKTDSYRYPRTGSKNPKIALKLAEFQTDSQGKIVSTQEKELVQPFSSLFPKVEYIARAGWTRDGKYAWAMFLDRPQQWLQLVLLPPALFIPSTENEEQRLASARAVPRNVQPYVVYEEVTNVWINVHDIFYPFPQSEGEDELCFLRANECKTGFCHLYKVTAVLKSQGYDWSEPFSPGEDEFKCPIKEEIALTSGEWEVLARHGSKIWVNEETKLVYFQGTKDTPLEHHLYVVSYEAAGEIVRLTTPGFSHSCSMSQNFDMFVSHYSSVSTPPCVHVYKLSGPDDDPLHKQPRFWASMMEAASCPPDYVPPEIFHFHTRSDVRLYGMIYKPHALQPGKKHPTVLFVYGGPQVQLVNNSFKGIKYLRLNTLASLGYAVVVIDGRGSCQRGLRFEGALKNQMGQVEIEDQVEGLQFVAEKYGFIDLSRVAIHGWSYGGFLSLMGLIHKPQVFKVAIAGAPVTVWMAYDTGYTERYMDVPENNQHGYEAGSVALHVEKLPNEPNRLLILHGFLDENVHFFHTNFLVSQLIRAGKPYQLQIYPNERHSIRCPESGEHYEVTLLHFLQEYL

[3] = biological target: T2, recombinant human DPP9 (rhDPP9); experiment: DPP9 enzymatic activity assay, 40 ng rhDPP9, HEPES buffer; conditions: Table 3A
[4] = biological target: T3, recombinant human DPPIV (rhDPPIV) (Homo sapiens, UniProt P27487); experiment: DPPIV enzymatic activity assay, H-Gly-Pro-pNA; conditions: Table 3B
T3 construct: purchased R&S system (so in the source)
T3 sequence (P27487 whole entry): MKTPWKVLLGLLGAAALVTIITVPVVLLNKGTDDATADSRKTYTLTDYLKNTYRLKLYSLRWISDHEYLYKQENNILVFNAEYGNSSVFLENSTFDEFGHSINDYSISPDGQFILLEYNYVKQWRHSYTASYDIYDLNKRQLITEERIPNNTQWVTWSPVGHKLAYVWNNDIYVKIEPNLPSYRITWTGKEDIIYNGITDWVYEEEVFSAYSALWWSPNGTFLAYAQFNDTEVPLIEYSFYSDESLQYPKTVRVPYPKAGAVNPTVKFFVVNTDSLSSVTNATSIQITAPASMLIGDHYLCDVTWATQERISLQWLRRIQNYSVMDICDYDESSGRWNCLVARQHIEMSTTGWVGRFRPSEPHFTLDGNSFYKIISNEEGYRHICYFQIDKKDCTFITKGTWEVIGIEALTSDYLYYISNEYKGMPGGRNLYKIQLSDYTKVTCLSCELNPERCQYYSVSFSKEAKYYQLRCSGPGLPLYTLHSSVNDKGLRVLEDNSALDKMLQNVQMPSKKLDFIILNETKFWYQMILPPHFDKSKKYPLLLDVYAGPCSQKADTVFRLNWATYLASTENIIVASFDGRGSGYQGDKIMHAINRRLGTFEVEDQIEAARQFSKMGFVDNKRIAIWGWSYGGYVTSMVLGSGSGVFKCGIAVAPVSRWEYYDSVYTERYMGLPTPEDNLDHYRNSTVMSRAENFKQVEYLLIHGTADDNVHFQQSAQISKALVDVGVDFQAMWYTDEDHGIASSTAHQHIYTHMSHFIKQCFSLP

[5] = biological target: T4, recombinant human PREP (rhPREP) (Homo sapiens, UniProt P48147); experiment: PREP enzymatic activity assay, Z-Gly-Pro-AMC; conditions: Table 3B
T4 sequence (P48147 1-710): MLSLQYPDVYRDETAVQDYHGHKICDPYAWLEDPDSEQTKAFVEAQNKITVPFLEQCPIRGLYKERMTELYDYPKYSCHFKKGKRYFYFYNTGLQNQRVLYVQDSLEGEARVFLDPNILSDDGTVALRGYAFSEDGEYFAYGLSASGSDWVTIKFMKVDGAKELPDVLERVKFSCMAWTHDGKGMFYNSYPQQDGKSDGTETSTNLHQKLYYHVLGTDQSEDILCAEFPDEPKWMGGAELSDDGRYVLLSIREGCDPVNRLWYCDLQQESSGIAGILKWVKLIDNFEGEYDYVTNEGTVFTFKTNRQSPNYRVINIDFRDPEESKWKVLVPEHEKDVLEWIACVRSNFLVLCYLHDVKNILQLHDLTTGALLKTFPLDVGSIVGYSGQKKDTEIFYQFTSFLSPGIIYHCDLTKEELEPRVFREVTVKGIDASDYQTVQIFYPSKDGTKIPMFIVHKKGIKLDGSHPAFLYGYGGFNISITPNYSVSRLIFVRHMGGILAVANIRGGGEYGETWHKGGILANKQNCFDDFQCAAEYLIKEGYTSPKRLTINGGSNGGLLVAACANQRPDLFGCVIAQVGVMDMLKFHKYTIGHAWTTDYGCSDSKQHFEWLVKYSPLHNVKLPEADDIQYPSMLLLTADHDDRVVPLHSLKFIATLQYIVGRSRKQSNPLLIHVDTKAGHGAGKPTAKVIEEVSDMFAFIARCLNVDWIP

[6] = Table 3B, read-out: rhFAPα % exo inh @ 1 μM

Structure (SMILES) | IC50 ([1]; Table 3B, read-out: rhFAP IC50) [nM] | inhibition at 1 µM ([1]; Table 2, read-out: rhFAPα (% exo inh @ 1 μM)) [%] | inhibition at 1 µM [1, 6] [%] | IC50 ([1]; exopeptidase, Table 2, read-out: rhFAPα (exo IC50)) [nM] | IC50 ([1]; exopeptidase, Table 3A, read-out: rhFAPα (exo IC50)) [nM] | IC50 [2] [nM] | IC50 [3] [nM] | IC50 [4] [nM] | IC50 [5] [nM]
N#C[C@@H]1CC(F)(F)CN1C(=O)CNC(=O)c1ccnc(N2CCN(C(c3ccc(F)cc3)c3ccc(F)cc3)CC2)c1 [Compound 6, (S)-2-(4-(bis(4-fluorophenyl)methyl)piperazin-1-yl)-N-(2-(2-cyano-4,4-difluoropyrrolidin-1-yl)-2-oxoethyl)isonicotinamide] | < 1000 | > 50 | > 50 | < 1000 | < 1000 | 1000 to 10000 | 1000 to 10000 |  | 
C/C(=C\c1cnccc1C(=O)NCC(=O)N1CC(F)(F)C[C@H]1C#N)c1ccc(OC(F)(F)F)cc1 [Compound 19] | < 1000 |  | > 50 |  |  | 1000 to 10000 |  | > 10000 | > 10000
C/C(=C\c1cnccc1C(=O)NCC(=O)N1CC(F)(F)C[C@H]1C#N)c1ccc(C(F)(F)F)cc1 [Compound 20] | < 1000 |  | > 50 |  |  | 1000 to 10000 |  | > 10000 | > 10000
N#C[C@@H]1CC(F)(F)CN1C(=O)CNC(=O)c1ccncc1/C=C/c1ccc(C(F)(F)F)cc1 [Compound 24] | < 1000 |  | > 50 |  |  | 1000 to 10000 |  | 1000 to 10000 | > 10000
C/C(=C\c1cnccc1C(=O)NCC(=O)N1CC(F)(F)C[C@H]1C#N)c1ccc(Cl)cc1 [Compound 26] | < 1000 |  | > 50 |  |  | < 1000 |  | > 10000 | > 10000
COc1ccc(/C(C)=C/c2cnccc2C(=O)NCC(=O)N2CC(F)(F)C[C@H]2C#N)cc1 [Compound 29] | < 1000 |  | > 50 |  |  | 1000 to 10000 |  | > 10000 | > 10000
N#C[C@@H]1CC(F)(F)CN1C(=O)CNC(=O)c1ccncc1/C=C/c1ccc(OC(F)(F)F)cc1 [Compound 33] | < 1000 |  | > 50 |  |  | < 1000 |  | > 10000 | > 10000
N#C[C@@H]1CC(F)(F)CN1C(=O)CNC(=O)c1ccnc2ccc(-c3ccc(C(F)(F)F)cc3)cc12 [Compound 35] | < 1000 |  | > 50 |  |  | < 1000 |  | > 10000 | > 10000
COc1ccc(C#Cc2cnccc2C(=O)NCC(=O)N2CC(F)(F)C[C@H]2C#N)cc1 [Compound 36] | < 1000 |  | > 50 |  |  | > 10000 |  | > 10000 | > 10000
N#C[C@@H]1CC(F)(F)CN1C(=O)CNC(=O)c1ccncc1C#Cc1ccc(Cl)cc1 [Compound 37] | < 1000 |  | > 50 |  |  | > 10000 |  | > 10000 | > 10000
N#C[C@@H]1CC(F)(F)CN1C(=O)CNC(=O)c1ccnc2ccc(-c3ccc(C(F)(F)F)nc3)cc12 [Compound 38] | < 1000 |  | > 50 |  |  | < 1000 |  | > 10000 | > 10000
C/C(=C\c1ccc2nccc(C(=O)NCC(=O)N3CC(F)(F)C[C@H]3C#N)c2c1)c1ccc(Cl)cc1 [Compound 39] | < 1000 |  | > 50 |  |  | < 1000 |  | > 10000 | > 10000
N#C[C@@H]1CC(F)(F)CN1C(=O)CNC(=O)c1ccnc2ccc(/C=C/c3ccc4cc(Cl)ccc4c3)cc12 [Compound 42] | < 1000 |  | > 50 |  |  | < 1000 |  | > 10000 | > 10000
COc1ccc(/C=C/c2ccc3nccc(C(=O)NCC(=O)N4CC(F)(F)C[C@H]4C#N)c3c2)cn1 [Compound 43] | < 1000 |  | > 50 |  |  | < 1000 |  | > 10000 | > 10000
N#C[C@@H]1CC(F)(F)CN1C(=O)CNC(=O)c1ccnc2ccc(/C=C/c3ccc(OC(F)(F)F)cc3)cc12 [Compound 48] | < 1000 |  | > 50 |  |  | < 1000 |  | > 10000 | > 10000
Cc1ccc(/C=C/c2ccc3nccc(C(=O)NCC(=O)N4CC(F)(F)C[C@H]4C#N)c3c2)nc1 [Compound 49] | < 1000 |  | > 50 |  |  | < 1000 |  |  | 
CC(C)(C)c1ccc(/C=C/c2ccc3nccc(C(=O)NCC(=O)N4CC(F)(F)C[C@H]4C#N)c3c2)cc1 [Compound 50] | < 1000 |  | > 50 |  |  | 1000 to 10000 |  |  | 
N#C[C@@H]1CC(F)(F)CN1C(=O)CNC(=O)c1ccnc2ccc(/C=C/c3ccc(C(F)(F)F)cc3)cc12 [Compound 51] | < 1000 |  | > 50 |  |  | < 1000 |  |  | 
CN1CCN(c2ccc(-c3ccc4nccc(C(=O)NCC(=O)N5CC(F)(F)C[C@H]5C#N)c4c3)cn2)CC1 [Compound 52] | < 1000 |  | > 50 |  |  | 1000 to 10000 |  |  | 
C[C@H](Nc1cnccc1C(=O)NCC(=O)N1CC(F)(F)C[C@H]1C#N)c1ccc(F)cc1 [Compound 190] | < 1000 |  | > 50 |  |  |  |  | > 10000 | 
C[C@@H](Nc1cnccc1C(=O)NCC(=O)N1CC(F)(F)C[C@H]1C#N)c1ccc(F)cc1 [Compound 191] | < 1000 |  | > 50 |  |  |  |  | > 10000 | 1000 to 10000
CC(C)(O)c1ccc(-c2ccc3nccc(C(=O)NCC(=O)N4CC(F)(F)C[C@H]4C#N)c3c2)cc1 [Compound 195] | < 1000 |  | > 50 |  |  |  |  | > 10000 | > 10000
